Data published in US20250215010A1, “DIAZABICYCLOOCTANE DERIVATIVES USEFUL AS MATRIX METALLOPROTEINASE INHIBITORS” (VASA THERAPEUTICS SPOLKA Z OGRANICZONA ODPOWIEDZIALNOSCIA, priority 2022, published 2025).
Like-named read-outs stand apart in the source and are kept apart here.

Experiments:
Type in all cases: biochemical
[1] = target: T1, MMP1 (Homo sapiens, UniProt P03956); experiment: MMP-1 colorimetric inhibition assay (Enzo kit BML-AK404); conditions: thiopeptide substrate, absorbance 415 nm; read-out: MMP 1 IC50 class
T1 sequence (P03956 100-269 limits assumed): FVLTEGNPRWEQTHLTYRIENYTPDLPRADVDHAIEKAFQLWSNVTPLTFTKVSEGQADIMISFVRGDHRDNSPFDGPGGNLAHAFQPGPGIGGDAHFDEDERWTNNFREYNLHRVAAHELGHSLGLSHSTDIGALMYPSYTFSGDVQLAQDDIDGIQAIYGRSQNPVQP
Procedure, shortened: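 Colorimetric kit run per manufacturer protocol. MMP-1 cleaves a thiopeptide substrate (Ac-PLG-[2-mercapto-4-methylpentanoyl]-LG-OC2H5); released thiol reacts with DTNB, monitored at 415 nm. IC50 (nM) from inhibition curves of normalized values.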

[2] = target: T2, MMP2 (Homo sapiens, UniProt P08253); experiment: MMP-2 colorimetric inhibition assay (Enzo kit BML-AK408); conditions: thiopeptide substrate, absorbance 415 nm; read-out: MMP 2 IC50 class
T2 sequence (P08253 110-660): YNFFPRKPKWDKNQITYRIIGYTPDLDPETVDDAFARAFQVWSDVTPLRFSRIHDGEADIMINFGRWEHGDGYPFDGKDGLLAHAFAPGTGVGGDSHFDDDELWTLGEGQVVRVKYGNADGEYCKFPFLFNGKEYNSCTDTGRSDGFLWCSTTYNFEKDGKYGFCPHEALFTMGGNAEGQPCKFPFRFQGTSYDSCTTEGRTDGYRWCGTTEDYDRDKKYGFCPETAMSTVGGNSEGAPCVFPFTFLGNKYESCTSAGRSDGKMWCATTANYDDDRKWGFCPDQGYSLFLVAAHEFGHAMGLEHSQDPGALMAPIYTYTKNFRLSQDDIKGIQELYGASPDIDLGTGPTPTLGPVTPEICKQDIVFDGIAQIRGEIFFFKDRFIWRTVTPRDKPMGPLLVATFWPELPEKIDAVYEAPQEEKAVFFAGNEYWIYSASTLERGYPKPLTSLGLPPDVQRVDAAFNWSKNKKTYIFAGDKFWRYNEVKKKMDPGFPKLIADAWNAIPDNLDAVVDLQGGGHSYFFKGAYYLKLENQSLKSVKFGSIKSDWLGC
Procedure, shortened: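 Cleavage of the thiopeptide Ac-PLG-[2-mercapto-4-methylpentanoyl]-LG-OC2H5 releases a sulfhydryl that reacts with DTNB, read at 415 nm per the kit protocol. IC50 values (nM) come from inhibition curves of normalized data.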

[3] = target: MMP9 (Homo sapiens, UniProt P14780); experiment: MMP-9 colorimetric inhibition assay (Enzo kit BML-AK410); conditions: thiopeptide substrate, absorbance 415 nm; read-out: MMP 9 IC50 class
Sequence of MMP9 (P14780 94-707): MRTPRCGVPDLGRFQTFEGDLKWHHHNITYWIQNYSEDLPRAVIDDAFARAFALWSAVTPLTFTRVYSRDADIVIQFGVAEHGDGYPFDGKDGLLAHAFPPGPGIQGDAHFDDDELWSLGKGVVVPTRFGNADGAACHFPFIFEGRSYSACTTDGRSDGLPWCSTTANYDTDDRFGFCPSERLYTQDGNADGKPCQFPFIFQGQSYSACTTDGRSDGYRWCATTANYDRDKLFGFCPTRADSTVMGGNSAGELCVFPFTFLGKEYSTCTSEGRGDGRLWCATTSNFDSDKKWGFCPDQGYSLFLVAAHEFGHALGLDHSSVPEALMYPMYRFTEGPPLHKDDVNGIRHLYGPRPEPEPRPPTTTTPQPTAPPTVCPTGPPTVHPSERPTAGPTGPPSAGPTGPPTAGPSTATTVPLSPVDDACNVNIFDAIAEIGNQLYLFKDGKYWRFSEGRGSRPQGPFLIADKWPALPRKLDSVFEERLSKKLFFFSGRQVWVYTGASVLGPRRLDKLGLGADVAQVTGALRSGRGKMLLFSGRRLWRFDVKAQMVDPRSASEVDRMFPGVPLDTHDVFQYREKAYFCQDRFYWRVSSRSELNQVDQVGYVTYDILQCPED
Procedure, shortened: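 Colorimetric thioester-substrate assay: hydrolysis of Ac-PLG-[2-mercapto-4-methylpentanoyl]-LG-OC2H5 frees a thiol that reacts with DTNB, read at 415 nm. Run per kit protocol. IC50 (nM) taken from inhibition curves of normalized values.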

[4] = target: T3, MMP13 (Homo sapiens, UniProt P45452); experiment: MMP-13 colorimetric inhibition assay (Enzo kit BML-AK412); conditions: thiopeptide substrate, absorbance 415 nm; read-out: MMP 13 IC50 class
T3 construct: purchased Enzo Life Sciences, Inc. BML-AK412
Procedure, shortened: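 Thiopeptide chromogenic substrate (Ac-PLG-[2-mercapto-4-methylpentanoyl]-LG-OC2H5); MMP-13 hydrolysis of the thioester yields a thiol that reacts with DTNB, read at 415 nm. IC50 values (nM) derived from inhibition curves of normalized data.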

[5] = target: ADAM17 (TACE) (Homo sapiens, UniProt P78536); experiment: TACE fluorometric inhibition assay (Enzo kit BML-AK310); conditions: quenched fluorogenic peptide, ex/em 320/420 nm; read-out: TACE IC50 class
Sequence of ADAM17 (TACE) (P78536 215-477 limits assumed): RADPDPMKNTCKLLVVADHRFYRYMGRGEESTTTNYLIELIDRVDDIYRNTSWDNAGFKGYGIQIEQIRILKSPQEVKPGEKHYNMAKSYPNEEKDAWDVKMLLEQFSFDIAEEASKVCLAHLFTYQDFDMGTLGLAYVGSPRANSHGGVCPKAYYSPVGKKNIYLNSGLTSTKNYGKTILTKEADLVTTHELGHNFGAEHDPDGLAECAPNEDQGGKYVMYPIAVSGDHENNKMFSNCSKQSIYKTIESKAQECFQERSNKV
Procedure, shortened: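 Kit-based TACE assay run per manufacturer's protocol, using quenched fluorogenic peptide Mca-PLAQAV-Dpa-RSSSR-NH2 whose cleavage raises Mca fluorescence. Signal read at ex/em 320/420 nm; IC50 (nM) derived from inhibition curves of normalized values.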

[6] = target: T4, ADAM10 (Homo sapiens, UniProt O14672); experiment: SensoLyte 520 ADAM10 fluorometric activity assay (AnaSpec AS-72226)
T4 construct: purchased AnaSpec, Inc. AS-72226
T4 sequence (O14672 214-748): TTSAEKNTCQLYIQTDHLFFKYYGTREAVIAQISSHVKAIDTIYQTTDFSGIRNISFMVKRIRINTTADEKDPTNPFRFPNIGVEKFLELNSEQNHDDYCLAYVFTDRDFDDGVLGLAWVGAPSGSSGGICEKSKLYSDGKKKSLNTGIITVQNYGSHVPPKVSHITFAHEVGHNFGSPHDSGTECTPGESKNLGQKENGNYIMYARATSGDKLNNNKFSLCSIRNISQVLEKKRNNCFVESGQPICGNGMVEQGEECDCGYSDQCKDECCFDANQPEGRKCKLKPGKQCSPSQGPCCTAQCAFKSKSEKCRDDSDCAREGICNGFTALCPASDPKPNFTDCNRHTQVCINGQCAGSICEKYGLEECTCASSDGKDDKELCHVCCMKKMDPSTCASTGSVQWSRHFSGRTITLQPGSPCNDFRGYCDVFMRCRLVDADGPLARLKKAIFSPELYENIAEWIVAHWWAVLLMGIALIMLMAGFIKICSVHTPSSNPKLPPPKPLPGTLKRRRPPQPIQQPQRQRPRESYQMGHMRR
Procedure: The inhibitory activities of the compounds of the invention were assessed in 96-well microplate format using MMP1, MMP2, MMP9 and MMP13 colorimetric assay kits and TACE fluorometric assay kit from Enzo Life Sciences, Inc. The inhibitory effect of the compounds of the invention on ADAM10 activity were evaluated in 96-well microplate format using fluorometric assay from AnaSpec, Inc.
SensoLyte® 520 ADAM10 Activity Assay Kit (catalog #AS-72226) is a complete assay system designed to screen ADAM10 inhibitors using FRET-based peptide substrate containing the 5-FAM/QXL™ 520 fluorophore/quencher pair. The fluorescence of 5-FAM is quenched by QXL™ 520 and recovered upon cleavage of the peptide by active ADAM10.
The inhibitory activity of the compounds of the invention against ADAM10 was tested according to the manufacturer's assay protocol and the fluorescence was monitored at excitation/emission wavelengths=495 nm/520 nm using Tecan Infinite® 200 Pro F Nano^+ microplate reader.
The normalized values were analyzed using GraphPadPrism 9 for Windows (GraphPad Software, San Diego, CA, USA) software by plotting inhibition curves and determining the IC50 values (in nM).

[7] = FRET peptide substrate, ex/em 495/520 nm, read-out: ADAM 10 IC50 class

SMILES	IC50 [1] [nM]	IC50 [2] [nM]	IC50 [3] [nM]	IC50 [4] [nM]	IC50 [5] [nM]	IC50 [6, 7] [nM]	IC50 [6] [nM]
COCCOC(=O)N1[C@@H]2CC[C@H]1[C@H](C(=O)NO)N(S(=O)(=O)c1ccc(Oc3ccc(F)cc3)nc1)C2 [Example 1, (1S,2R,5R)-2-methoxyethyl 3-((6-(4-fluorophenoxy)pyridin-3-yl)sulfonyl)-2-(hydroxycarbamoyl)-3,8-diazabicyclo[3.2.1]octane-8-carboxylate]	50 to 1000	< 50	< 50	< 50	1000 to 10000	1000 to 10000	–
COCCOC(=O)N1[C@@H]2CC[C@H]1[C@H](C(=O)NO)N(S(=O)(=O)c1ccc(Oc3ccc(F)cc3)c(F)c1)C2 [Example 5, 2-methoxyethyl (1S,2R,5R)-3-((3-fluoro-4-(4-fluoro-phenoxy)phenyl)-sulfonyl)-2-(hydroxycarbamoyl)-3,8-diazabicyclo[3.2.1]-octane-8-carboxylate]	50 to 1000	< 50	< 50	< 50	50 to 1000	–	50 to 1000
COCCOC(=O)N1[C@@H]2CC[C@H]1[C@H](C(=O)NO)N(S(=O)(=O)c1ccc(Oc3ccc(F)cn3)cc1)C2 [Example 7, 2-methoxyethyl (1S,2R,5R)-3-((4-((5-fluoropyridin-2-yl)oxy)phenyl)-sulfonyl)-2-(hydroxycarbamoyl)-3,8-diazabicyclo-[3.2.1]octane-8-carboxylate]	50 to 1000	< 50	< 50	< 50	50 to 1000	50 to 1000	–
COCCOC(=O)N1[C@@H]2CC[C@H]1[C@H](C(=O)NO)N(S(=O)(=O)c1ccc(Oc3ccc(Cl)cc3)nc1)C2 [Example 8, 2-methoxyethyl (1S,2R,5R)-3-((6-(4-chlorophenoxy)pyridin-3-yl)sulfonyl)-2-(hydroxycarbamoyl)-3,8-diazabicyclo-[3.2.1]octane-8-carboxylate]	50 to 1000	< 50	< 50	< 50	50 to 1000	1000 to 10000	–
COCCOC(=O)N1[C@@H]2CC[C@H]1[C@H](C(=O)NO)N(S(=O)(=O)c1ccc(Oc3ccc(Cl)c(F)c3)nc1)C2 [Example 9, 2-methoxyethyl (1S,2R,5R)-3-((6-(4-chloro-3-fluoro-phenoxy)pyridin-3-yl)sulfonyl)-2-(hydroxycarbamoyl)-3,8-diaza-bicyclo[3.2.1]octane-8-carboxylate]	50 to 1000	< 50	< 50	< 50	50 to 1000	1000 to 10000	–
COCCOC(=O)N1[C@@H]2CC[C@H]1[C@H](C(=O)NO)N(S(=O)(=O)N1CCN(Cc3ccc(OC)cc3)CC1)C2 [Example 77, 2-methoxyethyl (1S,2R,5R)-2-(hydroxycarbamoyl)-3-((4-(4-methoxybenzyl)piperazin-1-yl)sulfonyl)-3,8-diazabicyclo[3.2.1]octane-8-carboxylate]	> 10000	50 to 1000	50 to 1000	1000 to 10000	1000 to 10000	–	–
COCCOC(=O)N1[C@@H]2CC[C@H]1[C@H](C(=O)NO)N(S(=O)(=O)N1CCN(C(=O)c3ccc(Cl)cc3)CC1)C2 [Example 78, 2-methoxyethyl (1S,2R,5R)-3-((4-(4-chlorobenzoyl)piperazin-1-yl)sulfonyl)-2-(hydroxycarbamoyl)-3,8-diazabicyclo[3.2.1]octane-8-carboxylate]	> 10000	1000 to 10000	1000 to 10000	1000 to 10000	1000 to 10000	–	–
COCCOC(=O)N1[C@@H]2CC[C@H]1[C@H](C(=O)NO)N(S(=O)(=O)c1ccc(Oc3nc4ccccc4o3)c(F)c1)C2 [Example 79, 2-methoxyethyl (1S,2R,5R)-3-((4-(benzo[d]oxazol-2-yloxy)-3-fluorophenyl)sulfonyl)-2-(hydroxycarbamoyl)-3,8-diazabicyclo[3.2.1]octane-8-carboxylate]	> 10000	50 to 1000	1000 to 10000	50 to 1000	1000 to 10000	–	–
COCCOC(=O)N1[C@@H]2CC[C@H]1[C@H](C(=O)NO)N(S(=O)(=O)c1ccc(Oc3nc4ccc(Cl)cc4o3)c(F)c1)C2 [Example 80, 2-methoxyethyl (1S,2R,5R)-3-((4-((6-chlorobenzo[d]-oxazol-2-yl)oxy)-3-fluorophenyl)-sulfonyl)-2-(hydroxycarbamoyl)-3,8-diazabicyclo-[3.2.1]octane-8-carboxylate]	> 10000	1000 to 10000	1000 to 10000	1000 to 10000	1000 to 10000	–	–
COCCOC(=O)N1[C@@H]2CC[C@H]1[C@H](C(=O)NO)N(S(=O)(=O)c1ccc(Oc3nc4cc(Cl)ccc4o3)c(F)c1)C2 [Example 81, 2-methoxyethyl (1S,2R,5R)-3-((4-((5-chlorobenzo[d]-oxazol-2-yl)oxy)-3-fluorophenyl)sulfonyl)-2-(hydroxy-carbamoyl)-3,8-diazabicyclo[3.2.1]-octane-8-carboxylate]	> 10000	> 10000	1000 to 10000	> 10000	1000 to 10000	–	–
COCCOC(=O)N1[C@@H]2CC[C@H]1[C@H](C(=O)NO)N(S(=O)(=O)c1ccc(Oc3nc4ccc(F)cc4o3)c(F)c1)C2 [Example 82, 2-methoxyethyl (1S,2R,5R)-3-((3-fluoro-4-((6-fluoro-benzo[d]oxazol-2-yl)oxy)phenyl)-sulfonyl)-2-(hydroxycarbamoyl)-3,8-diazabicyclo-[3.2.1]octane-8-carboxylate]	> 10000	1000 to 10000	1000 to 10000	1000 to 10000	50 to 1000	–	–
